ChEMBL document CHEMBL5346961, “Discovery and Evaluation of 3-Quinoxalin Urea Derivatives as Potent, Selective, and Orally Available ATM Inhibitors Combined with Chemotherapy for the Treatment of Cancer via Goal-Oriented Molecule Generation and Virtual Screening” (J Med Chem, 2023)
Active and inactive are the calls of the source. The calls are words filed in the database; no cut-off is given here.

Tests used:
[1] = test system: SW-620; test: Synergistic inhibition of colony formation in human SW620 cells assessed as fold increase in irinotecan IC50 at 200 nM preincubated for 1 hr followed by irinotecan addition and measured after 1 week by crystal violet staining based […] assay; format: functional; conditions: time 169 hrs
[2] = Apparent permeability of compound across apical to basal membrane in human Caco-2 cells; format: ADME, cell-based
[3] = test system: HCT-116; test: Induction of apoptosis in human HCT-116 cells assessed as necrotic cells at 2 uM measured after 2 days by AnnexinV-FITC/PI staining based analysis (reference value: 0.64%); format: functional; conditions: time 2 day
[4] = test system: HCT-116; test: Induction of apoptosis in human HCT-116 cells assessed as early apoptotic cells at 2 uM measured after 2 days by AnnexinV-FITC/PI staining based analysis (reference value: 14.4%); format: functional; conditions: time 2 day
[5] = test system: MCF7; test: Synergistic antiproliferative activity against human MCF7 cells assessed as fold increase in etoposide IC50 at 200 nM measured after 6 days by MTT assay; format: functional; conditions: time 6 day
[6] = test system: HCT-116; test: Induction of apoptosis in human HCT-116 cells assessed as necrotic cells at 4 uM measured after 2 days in presence of irinotecan by AnnexinV-FITC/PI staining based analysis (reference value: 0.64%); format: functional; conditions: time 2 day
[7] = Tmax in Balb/C mouse at 10 mg/kg,po measured upto 48 hrs by LC-MS/MS analysis; format: ADME, organism-based; conditions: in vivo
[8] = test system: MCF7; test: Synergistic antiproliferative activity against human MCF7 cells assessed as fold increase in irinotecan IC50 at 200 nM measured after 6 days by MTT assay; format: functional; conditions: time 6 day
[9] = test system: HCT-116; test: Induction of apoptosis in human HCT-116 cells assessed as early apoptotic cells at 2 uM measured after 2 days in presence of irinotecan by AnnexinV-FITC/PI staining based analysis (reference value: 14.4%); format: functional; conditions: time 2 day
[10] = Clearance in Balb/C mouse at 10 mg/kg,iv measured upto 48 hrs by LC-MS/MS analysis; format: ADME, organism-based; conditions: in vivo
[11] = test system: HCT-116; test: Induction of apoptosis in human HCT-116 cells assessed as late apoptotic cells at 4 uM measured after 2 days in presence of irinotecan by AnnexinV-FITC/PI staining based analysis (reference value: 12.2%); format: functional; conditions: time 2 day
[12] = test system: SW-620; test: Antitumor activity against human SW620 cells xenografted in BALB/c nude mouse model assessed as tumor growth inhibition administered orally once daily for 3 days weekly after irinotecan post treatment for 21 days by caliper method; format: functional, cell-based; conditions: dose 20-40 mg/kg, route po, time 21.0 day
[13] = test system: SW-620; test: Antitumor activity against human SW620 cells xenografted in BALB/c nude mouse model assessed as tumor growth inhibition at 40 mg/kg, po administered once daily for 3 days weekly for 21 days by caliper method; format: functional, organism-based; conditions: time 21.0 day
[14] = molecular target: Serine-protein kinase ATM (Homo sapiens, UniProt Q13315); test: Inhibition of ATM (unknown origin) preincubated with compound for 30 mins followed by substrate addition and measured after 2 hrs by HTRF method
[15] = test system: HCT-116; test: Induction of apoptosis in human HCT-116 cells assessed as necrotic cells at 2 uM measured after 2 days in presence of irinotecan by AnnexinV-FITC/PI staining based analysis (reference value: 0.64%); format: functional; conditions: time 2 day
[16] = test system: SW-620; test: Antitumor activity against human SW620 cells xenografted in BALB/c nude mouse model assessed as tumor growth inhibition at 40 mg/kg, po administered once daily for 3 days weekly after irinotecan post treatment for 21 days by caliper method relative to control; format: functional; conditions: SW-620, 504 h, time 21 day, read-out: TGI
[17] = Half life in Balb/C mouse at 10 mg/kg,iv measured upto 48 hrs by LC-MS/MS analysis; format: ADME, organism-based; conditions: in vivo
[18] = Metabolic stability in human liver microsomes assessed as half life at 1 uM in presence of NADPH-regenerating system by LC-MS/MS analysis; format: ADME, Microsome
[19] = test system: SW-620; test: Antitumor activity against human SW620 cells xenografted in BALB/c nude mouse model assessed as tumor growth inhibition at 20 mg/kg, po administered once daily for 3 days weekly after irinotecan post treatment for 21 days by caliper method relative to control; format: functional; conditions: SW-620, 504 h, time 21 day, read-out: TGI
[20] = test system: HCT-116; test: Induction of apoptosis in human HCT-116 cells assessed as necrotic cells at 4 uM measured after 2 days by AnnexinV-FITC/PI staining based analysis (reference value: 0.64%); format: functional; conditions: time 2 day
[21] = test system: HCT-116; test: Antiproliferative activity against human HCT-116 cells assessed as cell survival at 1 uM incubated for 6 days by MTT assay relative to control; format: functional; conditions: HCT-116, 144 h, time 6 day, read-out: Survival
[22] = test system: MCF7; test: Antiproliferative activity against human MCF7 cells assessed as reduction in cell viability incubated for 6 days by MTT assay; format: functional, cell-based; conditions: MCF7, 144 h
[23] = test system: HCT-116; test: Induction of DNA damage in human HCT-116 cells assessed as decrease in gammaH2AX fluorescence intensity measured after 6 hrs in presence of irinotecan by fluorescence microscopic analysis; format: functional, cell-based; conditions: dose 0.5-2 µM
[24] = Clearance in Balb/C mouse at 10 mg/kg,po measured upto 48 hrs by LC-MS/MS analysis; format: ADME, organism-based; conditions: in vivo
[25] = Volume of distribution at steady state in Balb/C mouse at 10 mg/kg,iv measured upto 48 hrs by LC-MS/MS analysis; format: ADME, organism-based; conditions: in vivo, read-out: Vdss
[26] = test system: SW-620; test: Synergistic antiproliferative activity against human SW620 cells assessed as fold increase in irinotecan IC50 at 100 nM measured after 6 days by MTT assay; format: functional; conditions: time 6 day
[27] = test system: HCT-116; test: Induction of apoptosis in human HCT-116 cells assessed as late apoptotic cells at 4 uM measured after 2 days by AnnexinV-FITC/PI staining based analysis (reference value: 12.2%); format: functional; conditions: time 2 day
[28] = test system: HCT-116; test: Induction of apoptosis in human HCT-116 cells assessed as early apoptotic cells at 1 uM measured after 2 days by AnnexinV-FITC/PI staining based analysis (reference value: 14.4%); format: functional; conditions: time 2 day
[29] = Metabolic stability in human liver microsomes assessed as clearance at 1 uM in presence of NADPH-regenerating system by LC-MS/MS analysis; format: ADME, Microsome
[30] = molecular target: DNA-dependent protein kinase catalytic subunit (Homo sapiens, UniProt P78527); test: Inhibition of DNA-PK (unknown origin) at 1 uM in presence of [gamma33P-ATP] by scintillation counting method relative to control
[31] = test system: HCT-116; test: Inhibition of colony formation in human HCT-116 cells assessed as assessed as fold change in IC50 in presence of ionizing radiation; format: functional
[32] = test system: HCT-116; test: Induction of apoptosis in human HCT-116 cells assessed as viable cells at 1 uM measured after 2 days by AnnexinV-FITC/PI staining based analysis (reference value: 72.8%); format: functional; conditions: HCT-116, 48 h, time 2 day, read-out: Activity
[33] = test system: HCT-116; test: Antiproliferative activity against human HCT-116 cells assessed as reduction in cell viability incubated for 6 days by MTT assay; format: functional, cell-based; conditions: HCT-116, 144 h
[34] = test system: SW-620; test: Synergistic antiproliferative activity against human SW620 cells assessed as fold increase in irinotecan IC50 at 200 nM measured after 6 days by MTT assay; format: functional; conditions: time 6 day
[35] = test system: HCT-116; test: Induction of apoptosis in human HCT-116 cells assessed as late apoptotic cells at 1 uM measured after 2 days in presence of irinotecan by AnnexinV-FITC/PI staining based analysis (reference value: 12.2%); format: functional; conditions: time 2 day

Serine-protein kinase ATM, sequence (Q13315 whole entry): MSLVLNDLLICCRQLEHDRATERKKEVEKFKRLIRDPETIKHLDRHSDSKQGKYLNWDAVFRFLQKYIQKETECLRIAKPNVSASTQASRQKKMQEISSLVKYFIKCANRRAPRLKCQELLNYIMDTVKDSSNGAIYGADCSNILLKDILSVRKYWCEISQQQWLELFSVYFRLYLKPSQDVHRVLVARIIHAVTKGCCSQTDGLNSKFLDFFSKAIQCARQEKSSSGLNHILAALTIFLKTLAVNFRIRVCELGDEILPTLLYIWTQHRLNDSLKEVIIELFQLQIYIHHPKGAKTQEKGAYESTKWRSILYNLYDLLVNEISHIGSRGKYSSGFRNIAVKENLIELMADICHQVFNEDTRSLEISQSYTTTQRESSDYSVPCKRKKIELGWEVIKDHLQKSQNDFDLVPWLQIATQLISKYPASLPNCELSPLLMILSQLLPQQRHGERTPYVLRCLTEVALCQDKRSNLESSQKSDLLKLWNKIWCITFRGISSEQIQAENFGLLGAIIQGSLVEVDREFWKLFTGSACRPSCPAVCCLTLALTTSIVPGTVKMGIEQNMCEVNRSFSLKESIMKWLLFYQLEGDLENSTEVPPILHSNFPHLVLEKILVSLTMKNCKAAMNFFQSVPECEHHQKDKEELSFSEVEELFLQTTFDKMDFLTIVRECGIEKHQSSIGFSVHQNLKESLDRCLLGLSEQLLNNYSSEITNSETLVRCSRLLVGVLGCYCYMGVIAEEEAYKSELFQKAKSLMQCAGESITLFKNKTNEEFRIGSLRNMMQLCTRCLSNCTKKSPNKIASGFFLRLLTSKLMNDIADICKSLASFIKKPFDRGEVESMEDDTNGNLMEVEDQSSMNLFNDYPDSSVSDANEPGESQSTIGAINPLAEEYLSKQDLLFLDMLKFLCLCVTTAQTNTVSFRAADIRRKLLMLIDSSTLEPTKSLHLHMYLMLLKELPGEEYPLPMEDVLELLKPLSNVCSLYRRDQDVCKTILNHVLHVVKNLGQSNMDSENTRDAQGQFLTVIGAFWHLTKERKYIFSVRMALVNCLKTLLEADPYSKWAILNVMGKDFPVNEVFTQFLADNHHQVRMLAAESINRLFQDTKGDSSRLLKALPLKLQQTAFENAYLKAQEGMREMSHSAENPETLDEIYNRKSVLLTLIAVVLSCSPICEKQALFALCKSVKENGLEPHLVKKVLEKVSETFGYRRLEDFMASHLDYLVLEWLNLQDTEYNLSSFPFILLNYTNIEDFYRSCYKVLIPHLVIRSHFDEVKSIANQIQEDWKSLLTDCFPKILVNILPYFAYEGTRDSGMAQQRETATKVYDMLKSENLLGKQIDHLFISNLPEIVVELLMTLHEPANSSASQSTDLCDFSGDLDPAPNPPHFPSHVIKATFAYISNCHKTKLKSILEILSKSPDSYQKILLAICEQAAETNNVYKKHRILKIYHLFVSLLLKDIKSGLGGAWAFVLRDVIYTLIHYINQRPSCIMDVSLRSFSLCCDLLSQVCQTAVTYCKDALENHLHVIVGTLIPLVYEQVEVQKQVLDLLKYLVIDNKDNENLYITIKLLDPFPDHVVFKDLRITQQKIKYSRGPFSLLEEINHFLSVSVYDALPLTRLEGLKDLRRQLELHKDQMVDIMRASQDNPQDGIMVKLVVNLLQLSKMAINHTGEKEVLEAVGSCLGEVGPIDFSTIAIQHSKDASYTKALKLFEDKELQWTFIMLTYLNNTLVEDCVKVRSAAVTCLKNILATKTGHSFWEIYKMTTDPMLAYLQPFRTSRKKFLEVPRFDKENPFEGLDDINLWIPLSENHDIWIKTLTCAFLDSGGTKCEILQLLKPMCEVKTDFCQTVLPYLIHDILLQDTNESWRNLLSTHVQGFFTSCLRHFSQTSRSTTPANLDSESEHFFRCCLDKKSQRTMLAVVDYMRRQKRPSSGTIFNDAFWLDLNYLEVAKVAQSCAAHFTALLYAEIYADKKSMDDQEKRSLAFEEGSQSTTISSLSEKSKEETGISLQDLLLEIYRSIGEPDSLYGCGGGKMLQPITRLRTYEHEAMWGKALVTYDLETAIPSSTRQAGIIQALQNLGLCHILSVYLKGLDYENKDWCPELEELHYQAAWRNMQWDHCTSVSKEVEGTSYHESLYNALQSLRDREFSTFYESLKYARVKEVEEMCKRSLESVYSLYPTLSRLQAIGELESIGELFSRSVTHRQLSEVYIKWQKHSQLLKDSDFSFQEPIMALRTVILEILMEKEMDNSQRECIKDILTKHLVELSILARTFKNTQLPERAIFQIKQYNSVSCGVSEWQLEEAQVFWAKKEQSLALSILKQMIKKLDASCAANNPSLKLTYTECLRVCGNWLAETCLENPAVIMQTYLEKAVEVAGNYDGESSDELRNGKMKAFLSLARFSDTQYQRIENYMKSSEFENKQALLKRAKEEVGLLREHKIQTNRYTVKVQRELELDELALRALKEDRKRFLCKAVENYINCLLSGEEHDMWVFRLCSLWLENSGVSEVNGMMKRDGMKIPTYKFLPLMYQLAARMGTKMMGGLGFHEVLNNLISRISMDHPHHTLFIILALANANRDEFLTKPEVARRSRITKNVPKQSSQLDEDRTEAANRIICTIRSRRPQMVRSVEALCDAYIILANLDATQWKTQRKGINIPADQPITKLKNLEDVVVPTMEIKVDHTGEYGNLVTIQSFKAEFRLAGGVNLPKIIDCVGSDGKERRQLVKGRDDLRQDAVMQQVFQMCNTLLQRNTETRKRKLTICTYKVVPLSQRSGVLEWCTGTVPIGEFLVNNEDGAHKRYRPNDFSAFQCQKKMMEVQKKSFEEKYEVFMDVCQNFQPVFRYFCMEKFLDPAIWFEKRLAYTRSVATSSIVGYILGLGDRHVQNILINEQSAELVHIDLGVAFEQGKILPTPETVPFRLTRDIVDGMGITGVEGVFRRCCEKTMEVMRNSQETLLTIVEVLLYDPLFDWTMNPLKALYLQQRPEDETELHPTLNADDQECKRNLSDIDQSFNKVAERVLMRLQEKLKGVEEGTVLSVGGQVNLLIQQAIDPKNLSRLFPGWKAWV

## CC(C)NC(=O)N(C)c1cnc2ccc(-c3ccc(OCCCN4CCCCC4)nc3)cc2n1
[1]
  fold change (FC): 11.5
[2]
  Papp A→B: 1.02 ×10⁻⁶ cm/s
[3]
  Activity: 0.92%
[4]
  Activity: 17.6%
[5]
  fold change (FC): 5.2
[6]
  Activity: 1.73%
[7]
  Tmax: 0.33 h
[8]
  fold change (FC): 15
[9]
  Activity: 51.3%
[10]
  clearance: 13 mL/min/kg
[11]
  Activity: 35.2%
[12]
  Activity: Dose-Dependent Effect
[13]
  Activity: inactive
[14]
  IC50: 0.00115 µM
[15]
  Activity: 1.67%
[16]
  inhibition in vivo at 40 mg/kg: 85.3%
[17]
  t1/2: 5.29 h
[18]
  half-life at 1 µM: 12.8 h
[19]
  inhibition in vivo at 20 mg/kg: 77.2%
[20]
  Activity: 0.6%
[21]
  viability at 1 µM: > 83%
[22]
  IC50: > 9 µM
[23]
  Activity: Active
[24]
  CL/F: 12.2 mL/min/kg
[25]
  Vd: 5.93 L/kg
[26]
  fold change (FC): 2.8
[27]
  Activity: 13%
[28]
  Activity: 18.3%
[29]
  CLH: 1.8 mL/min/g
[30]
  inhibition: < 50%
[31]
  fold change (FC): 750
[32]
  viability at 1 µM: 68%
[33]
  IC50: > 9 µM
[34]
  fold change (FC): 4.5
[35]
  Activity: 30.4%
